Measurements taken from patent publication US20020111274A1, “1-alkyl-3-[1-(substituted phenyl) benzotriazol-6-yl] uracils” (BASF Aktiengesellschaft, priority 2000, published 2002).

Tests used:
Design in all cases: scale not given here
[1] = tested on: CHEAL Lambsquarters, Common; assay: Postemergence herbicidal evaluation, CHEAL; assay type: in vivo, Chenopodium album, L.; conditions: postemergence spray, rated about two-three weeks after treatment
Method in brief: (§1)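 Postemergence spray, 40 psi nozzle, on ~2-week seedlings. Carrier: acetone/water 80/20, 1.0% methylated seed oil; dose ~0.006–0.400 kg/ha. Scored visually at 2–3 weeks.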

[2] = tested on: IPOHE Morningglory, Ivyleaf; assay: Postemergence herbicidal evaluation, IPOHE; assay type: in vivo, Ipomoea hederacea, (L.) Jacq.; conditions: postemergence spray, rated about two-three weeks after treatment
Method in brief: as §1

CASOB Sicklepod = assay: Preemergence herbicidal evaluation, CASOB; assay type: in vivo, Cassia obtusifolia, L.; conditions: preemergence
Method in brief: (§2)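 Visual ratings were taken four to five weeks after application. Before that, cups sown with seed in potting soil received a spray of compound dissolved in aqueous acetone, equivalent to about 0.013 to 0.800 kg/ha, and stood on greenhouse benches under conventional care.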

ECHOG Barnyardgrass [3] = assay: Preemergence herbicidal evaluation, ECHOG; assay type: in vivo, Echinochloa crus-galli, (L.) Beau; conditions: preemergence
Method in brief: as §2

ORYSAT Rice, Tebonnet = assay: Postemergence herbicidal evaluation, ORYSAT; assay type: in vivo, Oryza sativa, (L.); conditions: postemergence spray, rated about two-three weeks after treatment
Method in brief: as §1

ECHOG Barnyardgrass [4] = assay: Postemergence herbicidal evaluation, ECHOG; assay type: in vivo, Echinochloa crus-galli, (L.) Beau; conditions: postemergence spray, rated about two-three weeks after treatment
Method in brief: as §1

ZEAMX Corn, Field = assay: Postemergence herbicidal evaluation, ZEAMX; assay type: in vivo, Zea mays, L. (Sammel-Bezeichnung); conditions: postemergence spray, rated about two-three weeks after treatment
Method in brief: as §1

[5] = tested on: TRZAWR Wheat, Winter, cv Riband; assay: Postemergence herbicidal evaluation, TRZAWR; assay type: in vivo, Triticum aestivum; conditions: postemergence spray, rated about two-three weeks after treatment
Method in brief: as §1

GALAP Galium = assay: Preemergence herbicidal evaluation, GALAP; assay type: in vivo, Galium aparine; conditions: preemergence
Method in brief: as §2

AMBEL Ragweed, Common = assay: Postemergence herbicidal evaluation, AMBEL; assay type: in vivo, Ambrosia artemisifolia, L.; conditions: postemergence spray, rated about two-three weeks after treatment
Method in brief: as §1

GLXMAW Soybean, Williams = assay: Postemergence herbicidal evaluation, GLXMAW; assay type: in vivo, Glycine max, (L.) Merr. cv Williams; conditions: postemergence spray, rated about two-three weeks after treatment
Method in brief: as §1

[6] = tested on: TRZAWR Wheat, Winter, cv Riband; assay: Preemergence herbicidal evaluation, TRZAWR; assay type: in vivo, Triticum aestivum; conditions: preemergence
Method in brief: as §2

CCc1ccc(-n2nnc3cc(F)c(-n4c(=O)cc(C(F)(F)F)n(C)c4=O)cc32)cc1COC [Example 28]
Postemergence herbicidal rating CHEAL ([1]; 0.008 kg/ha): 2.0
Postemergence herbicidal rating CHEAL ([1]; 0.016 kg/ha): 4.0
Postemergence herbicidal rating CHEAL ([1]; 0.032 kg/ha): 7.0
Postemergence herbicidal rating CHEAL ([1]; 0.062 kg/ha): 9.0
Postemergence herbicidal rating IPOHE ([2]; 0.008 kg/ha): 9.0
Postemergence herbicidal rating IPOHE ([2]; 0.016 kg/ha): 9.0
Postemergence herbicidal rating IPOHE ([2]; 0.032 kg/ha): 9.0
Postemergence herbicidal rating IPOHE ([2]; 0.062 kg/ha): 9.0
CASOB herbicidal rating (CASOB Sicklepod; rate 0.016 kg/ha): 0.0
CASOB herbicidal rating (CASOB Sicklepod; rate 0.032 kg/ha): 0.0
CASOB herbicidal rating (CASOB Sicklepod; rate 0.062 kg/ha): 0.0
ECHCG herbicidal rating (ECHOG Barnyardgrass [3]; rate 0.016 kg/ha): 0.0
ECHCG herbicidal rating (ECHOG Barnyardgrass [3]; rate 0.032 kg/ha): 0.0
ECHCG herbicidal rating (ECHOG Barnyardgrass [3]; rate 0.062 kg/ha): 0.0
ECHCG herbicidal rating (ECHOG Barnyardgrass [3]; rate 0.125 kg/ha): 7.0
Postemergence herbicidal rating ORYSAT (ORYSAT Rice, Tebonnet; 0.008 kg/ha): 0.5
Postemergence herbicidal rating ORYSAT (ORYSAT Rice, Tebonnet; 0.016 kg/ha): 2.0
Postemergence herbicidal rating ORYSAT (ORYSAT Rice, Tebonnet; 0.032 kg/ha): 3.0
Postemergence herbicidal rating ORYSAT (ORYSAT Rice, Tebonnet; 0.062 kg/ha): 5.5
Postemergence herbicidal rating ECHCG (ECHOG Barnyardgrass [4]; 0.008 kg/ha): 0.0
Postemergence herbicidal rating ECHCG (ECHOG Barnyardgrass [4]; 0.016 kg/ha): 0.0
Postemergence herbicidal rating ECHCG (ECHOG Barnyardgrass [4]; 0.032 kg/ha): 1.0
Postemergence herbicidal rating ECHCG (ECHOG Barnyardgrass [4]; 0.062 kg/ha): 1.0
Postemergence herbicidal rating ZEAMX (ZEAMX Corn, Field; 0.008 kg/ha): 3.5
Postemergence herbicidal rating ZEAMX (ZEAMX Corn, Field; 0.016 kg/ha): 6.0
Postemergence herbicidal rating ZEAMX (ZEAMX Corn, Field; 0.032 kg/ha): 6.0
Postemergence herbicidal rating ZEAMX (ZEAMX Corn, Field; 0.062 kg/ha): 7.5
Postemergence herbicidal rating TRZAWR ([5]; 0.008 kg/ha): 2.5
Postemergence herbicidal rating TRZAWR ([5]; 0.016 kg/ha): 4.5
Postemergence herbicidal rating TRZAWR ([5]; 0.032 kg/ha): 4.5
Postemergence herbicidal rating TRZAWR ([5]; 0.062 kg/ha): 5.5
GALAP herbicidal rating (GALAP Galium; rate 0.016 kg/ha): 0.0
GALAP herbicidal rating (GALAP Galium; rate 0.032 kg/ha): 0.0
GALAP herbicidal rating (GALAP Galium; rate 0.062 kg/ha): 0.0
GALAP herbicidal rating (GALAP Galium; rate 0.125 kg/ha): 9.0
Postemergence herbicidal rating AMBEL (AMBEL Ragweed, Common; 0.008 kg/ha): 9.0
Postemergence herbicidal rating AMBEL (AMBEL Ragweed, Common; 0.016 kg/ha): 9.0
Postemergence herbicidal rating AMBEL (AMBEL Ragweed, Common; 0.032 kg/ha): 9.0
Postemergence herbicidal rating AMBEL (AMBEL Ragweed, Common; 0.062 kg/ha): 9.0
Postemergence herbicidal rating GLXMAW (GLXMAW Soybean, Williams; 0.008 kg/ha): 4.0
Postemergence herbicidal rating GLXMAW (GLXMAW Soybean, Williams; 0.016 kg/ha): 5.0
Postemergence herbicidal rating GLXMAW (GLXMAW Soybean, Williams; 0.032 kg/ha): 6.0
Postemergence herbicidal rating GLXMAW (GLXMAW Soybean, Williams; 0.062 kg/ha): 6.5
TRZAWR herbicidal rating ([6]; rate 0.016 kg/ha): 0.0
TRZAWR herbicidal rating ([6]; rate 0.032 kg/ha): 0.0
TRZAWR herbicidal rating ([6]; rate 0.062 kg/ha): 0.0
TRZAWR herbicidal rating ([6]; rate 0.125 kg/ha): 0.0
